The values below come from patent publication US20120226031A1, “PALMARUMYCIN BASED INHIBITORS OF THIOREDOXIN AND METHODS OF USING SAME” (ARIZONA BOARD OF REGENTS, ACTING ON BEHALF OF THE …, priority 2005, published 2012).

pIC50: −log10 of the molar value.

The target of experiment [1] is T1, human glutathione reductase (Homo sapiens, UniProt P00390).
T1 sequence (P00390 45-522 limits assumed): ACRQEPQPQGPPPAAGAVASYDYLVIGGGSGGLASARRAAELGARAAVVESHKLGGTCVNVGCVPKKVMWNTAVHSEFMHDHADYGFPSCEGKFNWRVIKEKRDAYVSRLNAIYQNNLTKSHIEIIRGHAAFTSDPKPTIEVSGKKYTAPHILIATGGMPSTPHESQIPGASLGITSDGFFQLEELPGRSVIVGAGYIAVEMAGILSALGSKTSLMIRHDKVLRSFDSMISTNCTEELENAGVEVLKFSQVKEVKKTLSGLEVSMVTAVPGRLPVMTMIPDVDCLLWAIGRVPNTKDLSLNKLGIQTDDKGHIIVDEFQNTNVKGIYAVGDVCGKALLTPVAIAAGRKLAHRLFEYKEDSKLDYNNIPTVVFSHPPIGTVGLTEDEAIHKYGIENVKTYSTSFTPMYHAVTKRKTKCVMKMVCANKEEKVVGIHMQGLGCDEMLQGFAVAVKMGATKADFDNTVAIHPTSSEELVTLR
Description: Inhibition of human glutathione reductase (selectivity). Format: biochemical. How it is done: Based upon the observation that PX-916 was rapidly converted to PX-960 in aqueous solution, the ability of PX-960 to inhibit purified human TR was measured and found to be similar to that of PX-916 (Table 2). PX-916 was a selective inhibitor of human TR compared to two other NADPH dependent reductases with a selectivity of at least 200 for human glutathione reductase and human cytochrome P-450 reductase (Table 3).

Experiment [2] has as its system MCF-7 human tumor xenograft TR. Put plainly: Inhibition of tumor thioredoxin reductase in MCF-7 xenografts. Conditions: 25 mg/kg/d i.v. five daily doses, 24 hr after last dose. The format is in vivo, mouse. The procedure: FIG. 3. Inhibition of cellular thioredoxin reductase by PX-916. MCF-7 human breast cancer cells grown in medium containing 1 μM Se for 7 days were treated with PX-916 and total cellular thioredoxin reductase activity measured. A. Time course of the inhibition of the thioredoxin reductase on exposure to 1 μM PX-916. […] In both cases values are the mean of 3 separate determinations and bars are S.E. P≦0.04 or **p≦0.01. C. Inhibition of MCF-7 tumor thioredoxin reductase by PX-916. MCF-7 human breast cancer xenografts were grown in female scid mice implanted with 17-β-estradiol 60 day slow-release pellets until they were ˜300 mm^3. The mice were administered a single dose of PX-916 of 25 mg/kg i.v. and tumors harvested at various times. Thioredoxin reductase activity was measured in tumor homogenates. Values are the mean of 3 mice at each time point and bars are SE. **p<0.01 compared to pretreatment value.
FIG. 5. Inhibition of tumor HIF-1α, VEGF and thioredoxin reductase by repeated administration of PX-916. Female scid mice were implanted 1d previously with a 90-d 17β-estradiol slow release pellet were inoculated s.c. with 10^7 MCF-7 human breast cancer cells. When the tumors were 300 mm^3, vehicle or 25 mg/kg/d PX-916 was given i.v. for five doses. […]

The test system of experiment [3] is SHP-77 human small cell lung cancer. Description: Antitumor activity, SHP-77 small cell lung cancer xenograft. The format is in vivo, mouse. The procedure:
FIG. 4. Antitumor activity of PX-916. A. Female beige nude mice were inoculated subcutaneously (s.c.) with 10^7 A-673 rhabdomyosarcoma cells. When tumors were 100 mm^3 on day 8 (arrow) dosing was begun with (∘) vehicle alone; (▴) PX-916 10 mg/kg intraperitoneally (i.p.) daily for 4 doses. B. Female scid mice were inoculated s.c. with 10^7 SHP-77 human small cell lung cancer cells. When tumors were 130 mm^3 on day 17 (arrow) dosing was begun with (∘) vehicle alone; (▪) PX-916 10 mg/kg i.v. daily for 8 doses; (▴) PX-916 25 mg/kg i.v. daily for 5 doses. C. Female scid mice implanted 1 day previously with a 17-β-estradiol 60 day slow release pellet were inoculated s.c. with 10^7 MCF-7 human breast cancer cells. When tumors were 180 mm^3 on day 8 (arrow) dosing was begun with (∘) vehicle alone; (⋄) PX-916 27.5 mg/kg i.v. daily for 5 doses. In both A and B values are the mean of 8 mice per group and bars are SE.
A single intravenous (i.v.) dose of PX-916 of 25 mg/kg inhibited MCF-7 human tumor xenograft TR up to about 60% at 24 hr and the inhibition was maintained for at least 48 hr (FIG. 3C). […] In this study 3 of eight nice had no histologically detectable tumor when the study was terminated on day 42.

The mark [4] stands for this setting: 10 mg/kg i.v. daily for 8 doses.
The mark [5] stands for this setting: 25 mg/kg i.v. daily for 5 doses.

In the case of `NCC(=O)Oc1ccc2c3c(cccc13)OC1(C=CC(=O)c3c(O)cccc31)O2` (centres unmarked) [PX-916, O-glycyl naphthoquinone spiroketal], in experiment [1], the “concentration increase needed to inhibit glutathione reductase” value is given as “greater than 100 fold” and the “selectivity for human TR vs human glutathione reductase” value is on record as “at least 200”. For the same molecule, the “Selectivity for TR vs glutathione reductase” value in experiment [1] (Table 3) is listed as above 200. For the same molecule, the pIC50 in experiment [1] (Table 3, read-out: Inhibition IC50, glutathione reductase (red blood cell)) was below 4.30. Moreover, in experiment [2], the “decrease of tumor thioredoxin reductase activity” value is reported as 75%. Further, in experiment [3] (setting [4]), the tumor growth inhibition turned out to be 39% and the tumor growth rate result is “about 91±24 mm^3/day”. Moreover, in experiment [3] (setting [5]), the “mice with no histologically detectable tumor on day 42” value is 3 of eight and the tumor growth inhibition is reported as 82%. This molecule also yielded a tumor growth rate in experiment [3] (25 mg/kg i.v. daily for 5 doses, 5 days after end of dosing) of 27 mm^3/day. Moreover, the tumor regressions result in experiment [3] (in words) was “complete tumor regressions were seen in some mice”.
